According to paper PMC9437215, “Synthesis and antibacterial activity evaluation of N (7) position-modified balofloxacins” (Frontiers in Chemistry, 2022):
≈ marks a conversion by molar mass, not a printed value. Where two headings read alike, the source gives them in different places.

Key:
MRSA = test: MIC and MBC determinations in vitro, MRSA; type: cell-based; conditions: MRSA clinical isolate; for MIC: 24 h culture, read-out: MIC; for MBC: solid medium 24 h
Protocol: (§1) The three strains of MRSA, P. aeruginosa, and E. coli used in this experiment were from clinical isolates, which were provided by the People’s Liberation Army 304 Hospital.
(§2) To evaluate the antibacterial activities of newly synthesized N (7) position modified fluoroquinolones, the minimum inhibitory (MIC) and bactericidal (MBC) concentrations of these compounds toward bacteria were measured.

P. aeruginosa = test: MIC and MBC determinations in vitro, P. aeruginosa; type: cell-based; conditions: Pseudomonas aeruginosa, P. aeruginosa clinical isolate; for MIC: 24 h culture, read-out: MIC; for MBC: solid medium 24 h, read-out: MBC
Protocol: as §1, §2

E. coli = test: MIC and MBC determinations in vitro, E. coli; type: cell-based; conditions: Escherichia coli, E. coli clinical isolate; for MIC: 24 h culture; for MBC: solid medium 24 h
Protocol: as §1, §2

[1] = Staphylococcus aureus, MRSA, 24 h
[2] = Staphylococcus aureus, MRSA, 24 h, read-out: MBC

Row | Structure (SMILES) | MIC (MRSA; [1]) [µg/mL] | MBC (MRSA; [2]) [µg/mL] | MIC (P. aeruginosa) [µg/mL] | MBC (P. aeruginosa) [µg/mL] | MIC (E. coli) [µg/mL] | MBC (E. coli) [µg/mL] | melting point [°C] | MBC (MRSA) [µg/mL]
1 | COc1c(N2C[C@@H]3CCCN[C@@H]3C2)c(F)cc2c(=O)c(C(=O)O)cn(C3CC3)c12 [Compound 1f, moxifloxacin, reference compound] | 0.039 (≈ 0.0972 µM) | 0.039 (≈ 0.0972 µM) | 0.039 (≈ 0.0972 µM) | 0.039 (≈ 0.0972 µM) | 0.039 (≈ 0.0972 µM) | 0.039 (≈ 0.0972 µM) |  | 
2 | COc1c(N2CC3CCCN(C(C)=O)C3C2)c(F)cc2c(=O)c(C(=O)O)cn(C3CC3)c12 (centres unmarked) [Compound 2-f, 7-(1-Acetyloctahydro-6H-pyrrolo[3,4-b]pyridin-6-yl)-1-cyclopropyl-6-fluoro-8-methoxy-4-oxo-1,4-dihydroquinoline-3-carboxylic acid] | 0.313 (≈ 0.706 µM) | 0.625 (≈ 1.41 µM) | 0.313 (≈ 0.706 µM) | 0.625 (≈ 1.41 µM) | 0.313 (≈ 0.706 µM) | 0.625 (≈ 1.41 µM) |  | 
3 | CCC(=O)N(C)C1CCCN(c2c(F)cc3c(=O)c(C(=O)O)cn(C4CC4)c3c2OC)C1 (centres unmarked) [Compound 3-e, 1-Cyclopropyl-6-fluoro-8-methoxy-7-(3-(N-methylpropionamido)piperidin-1-yl)-4-oxo-1,4-dihydroquinoline-3-carboxylic acid] | 0.039 (≈ 0.0875 µM) | 0.078 (≈ 0.175 µM) | 0.078 (≈ 0.175 µM) | 0.078 (≈ 0.175 µM) | 5 (≈ 11.2 µM) | 10 (≈ 22.4 µM) |  | 
4 | CCCC(=O)N(C)C1CCCN(c2c(F)cc3c(=O)c(C(=O)O)cn(C4CC4)c3c2OC)C1 (centres unmarked) [Compound 4-e, 1-Cyclopropyl-6-fluoro-8-methoxy-7-(3-(N-methylbutyramido)piperidin-1-yl)-4-oxo-1,4-dihydroquinoline-3-carboxylic acid] | 0.039 (≈ 0.0849 µM) | 0.078 (≈ 0.17 µM) | 0.078 (≈ 0.17 µM) | 0.078 (≈ 0.17 µM) | 5 (≈ 10.9 µM) | 20 (≈ 43.5 µM) |  | 
5 | CCCCC(=O)N(C)C1CCCN(c2c(F)cc3c(=O)c(C(=O)O)cn(C4CC4)c3c2OC)C1 (centres unmarked) [Compound 5-e, 1-Cyclopropyl-6-fluoro-8-methoxy-7-(3-(N-methylpentanamido)piperidin-1-yl)-4-oxo-1,4-dihydroquinoline-3-carboxylic acid] | 0.078 (≈ 0.165 µM) | 0.156 (≈ 0.329 µM) | 0.078 (≈ 0.165 µM) | 0.156 (≈ 0.329 µM) | 10 (≈ 21.1 µM) | 20 (≈ 42.2 µM) |  | 
6 | CCCCCC(=O)N(C)C1CCCN(c2c(F)cc3c(=O)c(C(=O)O)cn(C4CC4)c3c2OC)C1 (centres unmarked) [Compound 6-e, 1-Cyclopropyl-6-fluoro-8-methoxy-7-(3-(N-methylhexanamido)piperidin-1-yl)-4-oxo-1,4-dihydroquinoline-3-carboxylic acid] | 0.156 (≈ 0.32 µM) | 0.625 (≈ 1.28 µM) | 0.313 (≈ 0.642 µM) | 0.625 (≈ 1.28 µM) | 20 (≈ 41 µM) | 20 (≈ 41 µM) |  | 
7 | CCCCCCC(=O)N(C)C1CCCN(c2c(F)cc3c(=O)c(C(=O)O)cn(C4CC4)c3c2OC)C1 (centres unmarked) [Compound 7-e, 1-Cyclopropyl-6-fluoro-8-methoxy-7-(3-(N-methylheptanamido)piperidin-1-yl)-4-oxo-1,4-dihydroquinoline-3-carboxylic acid] | 0.313 (≈ 0.624 µM) | 0.625 (≈ 1.25 µM) | 0.625 (≈ 1.25 µM) | 1.25 (≈ 2.49 µM) | > 40 | > 40 |  | 
8 | CCCCCCCC(=O)N(C)C1CCCN(c2c(F)cc3c(=O)c(C(=O)O)cn(C4CC4)c3c2OC)C1 (centres unmarked) [Compound 8-e, 1-Cyclopropyl-6-fluoro-8-methoxy-7-(3-(N-methyloctanamido)piperidin-1-yl)-4-oxo-1,4-dihydroquinoline-3-carboxylic acid] | 1.25 (≈ 2.42 µM) | 5 (≈ 9.7 µM) | 1.25 (≈ 2.42 µM) | 5 (≈ 9.7 µM) | > 40 | > 40 | 68.2 to 70 | 
9 | CCCCCCCCCC(=O)N(C)C1CCCN(c2c(F)cc3c(=O)c(C(=O)O)cn(C4CC4)c3c2OC)C1 (centres unmarked) [Compound 10-e, 1-Cyclopropyl-6-fluoro-8-methoxy-7-(3-(N-methyldecanamido)piperidin-1-yl)-4-oxo-1,4-dihydroquinoline-3-carboxylic acid] | 5 (≈ 9.2 µM) | 20 (≈ 36.8 µM) | 5 (≈ 9.2 µM) | 20 (≈ 36.8 µM) | > 40 | > 40 | 65.2 to 68.1 | 
10 | COc1c(N2CCCC(N(C)C(=O)C3CC3)C2)c(F)cc2c(=O)c(C(=O)O)cn(C3CC3)c12 (centres unmarked) [Compound 11-e, 1-Cyclopropyl-6-fluoro-8-methoxy-7-(3-(N-methylcyclopropanecarboxamido)piperidin-1-yl)-4-oxo-1,4-dihydroquinoline-3-carboxylic acid] | 0.039 (≈ 0.0852 µM) | 0.078 (≈ 0.17 µM) | 0.078 (≈ 0.17 µM) | 0.156 (≈ 0.341 µM) | 10 (≈ 21.9 µM) | 20 (≈ 43.7 µM) | 104.6 to 106.5 | 
11 | COc1c(N2CCCC(N(C)C(=O)c3ccccc3)C2)c(F)cc2c(=O)c(C(=O)O)cn(C3CC3)c12 (centres unmarked) [Compound 12-e, 1-Cyclopropyl-6-fluoro-8-methoxy-7-(3-(N-methylbenzamido)piperidin-1-yl)-4-oxo-1,4-dihydroquinoline-3-carboxylic acid] | 0.078 (≈ 0.158 µM) | 0.313 (≈ 0.634 µM) | 0.156 (≈ 0.316 µM) | 0.313 (≈ 0.634 µM) | 20 (≈ 40.5 µM) | 20 (≈ 40.5 µM) |  | 
12 | COc1c(N2CCCC(N(C)C(=O)c3ccco3)C2)c(F)cc2c(=O)c(C(=O)O)cn(C3CC3)c12 (centres unmarked) [Compound 13-e, 1-Cyclopropyl-6-fluoro-8-methoxy-7-(3-(N-methylfuran-2-carboxamido)piperidin-1-yl)-4-oxo-1,4-dihydroquinoline-3-carboxylic acid] | 0.078 (≈ 0.161 µM) | 0.156 (≈ 0.323 µM) | 0.078 (≈ 0.161 µM) | 0.156 (≈ 0.323 µM) | 10 (≈ 20.7 µM) | 20 (≈ 41.4 µM) | 167.5 to 168.7 | 
13 | COc1c(N2CCCC(N(C)C(=O)C3CCCO3)C2)c(F)cc2c(=O)c(C(=O)O)cn(C3CC3)c12 (centres unmarked) [Compound 14-e, 1-Cyclopropyl-6-fluoro-8-methoxy-7-(3-(N-methyltetrahydrofuran-2-carboxamido)piperidin-1-yl)-4-oxo-1,4-dihydroquinoline-3-carboxylic acid] | 0.078 (≈ 0.16 µM) | 0.156 (≈ 0.32 µM) | 0.156 (≈ 0.32 µM) | 0.313 (≈ 0.642 µM) | 20 (≈ 41 µM) | 20 (≈ 41 µM) | 140.2 to 141.2 | 
14 | COc1c(N2CCCC(N(C)C(=O)c3cccnc3)C2)c(F)cc2c(=O)c(C(=O)O)cn(C3CC3)c12 (centres unmarked) [Compound 15-e, 1-Cyclopropyl-6-fluoro-8-methoxy-7-(3-(N-methylnicotinamido)piperidin-1-yl)-4-oxo-1,4-dihydroquinoline-3-carboxylic acid] | 0.078 (≈ 0.158 µM) | 0.156 (≈ 0.315 µM) | 0.078 (≈ 0.158 µM) | 0.156 (≈ 0.315 µM) | 10 (≈ 20.2 µM) | 20 (≈ 40.4 µM) |  | 
15 | COc1c(N2CCCC(N(C)C(=O)C3CCCC3)C2)c(F)cc2c(=O)c(C(=O)O)cn(C3CC3)c12 (centres unmarked) [Compound 16-e, 1-Cyclopropyl-6-fluoro-8-methoxy-7-(3-(N-methylcyclopentanecarboxamido)piperidin-1-yl)-4-oxo-1,4-dihydroquinoline-3-carboxylic acid] | 0.313 (≈ 0.645 µM) | 0.625 (≈ 1.29 µM) | 0.313 (≈ 0.645 µM) | 0.625 (≈ 1.29 µM) | 20 (≈ 41.2 µM) | 40 (≈ 82.4 µM) | 105.1 to 106.4 | 
16 | COc1c(N2CCCC(N(C)C(=O)C(C)N)C2)c(F)cc2c(=O)c(C(=O)O)cn(C3CC3)c12 (centres unmarked) [Compound 19-e, 7-(3-(2-Amino-N-methylpropanamido)piperidin-1-yl)-1-cyclopropyl-6-fluoro-8-methoxy-4-oxo-1,4-dihydroquinoline-3-carboxylic acid] | 1.56 (≈ 3.39 µM) | 3.12 (≈ 6.79 µM) | 0.39 (≈ 0.847 µM) | 1.56 (≈ 3.39 µM) | 12.5 (≈ 27.1 µM) | 25 (≈ 54.3 µM) |  | 
17 | COc1c(N2CCCC(N(C)C(=O)CN)C2)c(F)cc2c(=O)c(C(=O)O)cn(C3CC3)c12 (centres unmarked) [Compound 20-e, 7-(3-(2-Amino-N-methylacetamido)piperidin-1-yl)-1-cyclopropyl-6-fluoro-8-methoxy-4-oxo-1,4-dihydroquinoline-3-carboxylic acid] | 25 (≈ 56 µM) | 50 (≈ 112 µM) | 0.78 (≈ 1.75 µM) | 6.25 (≈ 14 µM) | 25 (≈ 56 µM) | 50 (≈ 112 µM) |  | 
18 | COc1c(N2CCCC(N(C)C)C2)c(F)cc2c(=O)c(C(=O)O)cn(C3CC3)c12 (centres unmarked) [Compound 21-e, 1-Cyclopropyl-7-(3-(dimethylamino)piperidin-1-yl)-6-fluoro-8-methoxy-4-oxo-1,4-dihydroquinoline-3-carboxylic acid] | 0.078 (≈ 0.193 µM) | 0.31 (≈ 0.768 µM) | 0.313 (≈ 0.776 µM) | 0.313 (≈ 0.776 µM) | 0.625 (≈ 1.55 µM) | 0.625 (≈ 1.55 µM) |  | 0.313 (≈ 0.776 µM)
19 | COc1c(N2CCCC(N(C)C(=O)Cn3cncn3)C2)c(F)cc2c(=O)c(C(=O)O)cn(C3CC3)c12 (centres unmarked) [Compound e-1, 1-Cyclopropyl-6-fluoro-8-methoxy-7-(3-(N-methyl-2-(1H-1,2,4-triazol-1-yl)acetamido)piperidin-1-yl)-4-oxo-1,4-dihydroquinoline-3-carboxylic acid] | 0.156 (≈ 0.313 µM) | 0.312 (≈ 0.626 µM) | 0.156 (≈ 0.313 µM) | 0.313 (≈ 0.628 µM) | 0.156 (≈ 0.313 µM) | 0.313 (≈ 0.628 µM) |  | 0.313 (≈ 0.628 µM)
20 | COc1c(N2CC3CCCN(C(=O)Cn4cncn4)C3C2)c(F)cc2c(=O)c(C(=O)O)cn(C3CC3)c12 (centres unmarked) [Compound f-1, 7-(1-(2-(1H-1,2,4-Triazol-1-yl)acetyl)octahydro-6H-pyrrolo[3,4-b]pyridin-6-yl)-1-cyclopropyl-6-fluoro-8-methoxy-4-oxo-1,4-dihydroquinoline-3-carboxylic acid] | 0.313 (≈ 0.613 µM) | 2.5 (≈ 4.9 µM) | 1.25 (≈ 2.45 µM) | 2.5 (≈ 4.9 µM) | 0.625 (≈ 1.22 µM) | 2.5 (≈ 4.9 µM) |  | 
